According to article PMC11915366 (ACS infectious diseases, 2025):

What was measured:
E. coli DH5αZ1 = assay: Checkerboard FICI, E. coli DH5αZ1; assay type: cell-based
P. aeruginosa PA 27853 = assay: Checkerboard FICI, P. aeruginosa PA 27853; assay type: cell-based
[1] = test system: E. coli DH5αZ1+pZE24-Tet50; assay: Checkerboard FICI, E. coli DH5αZ1+pZE24-Tet50; assay type: cell-based; conditions: combination with Tetracycline
M. smegmatis mc^2155 = assay: Checkerboard FICI, M. smegmatis mc^2155 expressing TetX-HA; assay type: cell-based; conditions: combination with Tetracycline
[2] = test system: E. coli DH5αZ1+pZE24-TetX7; assay: Checkerboard FICI, E. coli DH5αZ1+pZE24-TetX7; assay type: cell-based; conditions: combination with Tetracycline
P. aeruginosa Pa-3 = assay: Checkerboard FICI, P. aeruginosa Pa-3; assay type: cell-based
[3] = test system: E. coli DH5αZ1 expressing TetX7 or Tet50 from pZE24 plasmid; assay: MIC by microbroth dilution, inhibitor alone or with fixed 8 μg/mL TC; assay type: cell-based; conditions: fixed TC concentration of 8 μg/mL; inhibitor concentration needed to rescue TC activity
E. coli DH5αZ1+pZE24 = assay: Checkerboard FICI, E. coli DH5αZ1+pZE24; assay type: cell-based; conditions: combination with Tetracycline; E. coli DH5αZ1+pZE24 (empty vector)
TetX7 = TetX7 (Pseudomonas aeruginosa, UniProt Q7X2A0); assay: Apparent steady-state kinetics of NADPH consumption; assay type: biochemical; conditions: increasing inhibitor concentration, A340
TetX7, sequence (Q7X2A0 1-378): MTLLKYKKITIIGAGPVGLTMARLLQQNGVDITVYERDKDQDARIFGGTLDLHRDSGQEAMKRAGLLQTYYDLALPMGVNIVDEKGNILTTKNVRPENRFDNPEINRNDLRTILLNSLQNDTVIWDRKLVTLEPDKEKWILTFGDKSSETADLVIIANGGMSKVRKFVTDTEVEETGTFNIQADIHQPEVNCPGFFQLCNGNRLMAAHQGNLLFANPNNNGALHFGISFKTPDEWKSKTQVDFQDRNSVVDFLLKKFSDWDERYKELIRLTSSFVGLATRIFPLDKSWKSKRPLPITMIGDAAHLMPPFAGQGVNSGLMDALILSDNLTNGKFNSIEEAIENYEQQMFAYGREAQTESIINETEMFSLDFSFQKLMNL

[4] = test system: E. coli DH5αZ1 expressing TetX7 or Tet50 from pZE24 plasmid; conditions: E. coli expressing TetX7 and Tet50; cited from earlier work
human red blood cells = assay type: cell-based; conditions: concentrations up to 500 μM (~250 μg/mL); 1 hour at 37 °C
Tet50 = target: T1, Tet50 (Unknown prokaryotic organism, UniProt A0A059WYP6); conditions: Tet(50); cited from earlier work
T1 sequence (A0A059WYP6 1-388): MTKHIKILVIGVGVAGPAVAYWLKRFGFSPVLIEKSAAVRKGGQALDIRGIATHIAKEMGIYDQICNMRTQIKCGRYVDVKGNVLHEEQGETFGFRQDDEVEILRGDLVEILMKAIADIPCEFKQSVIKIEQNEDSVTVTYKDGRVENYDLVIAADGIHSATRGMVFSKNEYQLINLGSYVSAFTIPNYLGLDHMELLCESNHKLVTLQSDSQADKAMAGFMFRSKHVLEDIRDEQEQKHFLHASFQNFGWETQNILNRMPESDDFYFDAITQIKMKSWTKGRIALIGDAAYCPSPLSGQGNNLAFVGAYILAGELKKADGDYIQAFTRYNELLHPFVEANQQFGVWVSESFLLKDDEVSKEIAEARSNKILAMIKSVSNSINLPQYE

[5] = assay type: in vitro ADME; conditions: E. coli cell lysate, 37 °C; LC-MS (A405 for acetate control)
[6] = combination with Tetracycline, P. aeruginosa PA 27853
[7] = combination with Tetracycline, P. aeruginosa PA 27853 (control lacking TetX7)
[8] = combination with Tigecycline, P. aeruginosa PA 27853

SMILES: Cc1c2c(c(O)c3c(OC(=O)c4ccccn4)cccc13)C(=O)[C@]1(O)C(=O)C(C(N)=O)=C(O)[C@@H](N(C)C)[C@@H]1C2 [Inhibitor 7]
- Effect (E. coli DH5αZ1; combination with Tetracycline): Additive
- Effect (E. coli DH5αZ1; combination with Tigecycline): Indifferent
- FICI (E. coli DH5αZ1; combination with Tigecycline): >1
- Effect (P. aeruginosa PA 27853; [6]): Indifferent
- FICI (P. aeruginosa PA 27853; [7]): >1
- Effect (P. aeruginosa PA 27853; [8]): Indifferent
- FICI (P. aeruginosa PA 27853; [8]): >1
- Effect [1]: Additive
- FICI [1]: 0.625
- Effect (M. smegmatis mc^2155): Additive/Indifferent
- FICI (M. smegmatis mc^2155): 0.75–1
- Effect [2]: Additive
- FICI [2]: 0.625
- Effect (P. aeruginosa Pa-3; combination with Tetracycline): Indifferent
- Effect (P. aeruginosa Pa-3; combination with Tigecycline): Synergetic
- MIC of inhibitor combined with TC [3]: 2 µg/mL
- Effect (E. coli DH5αZ1+pZE24): Indifferent
- FICI (E. coli DH5αZ1+pZE24): 1.125

SMILES: Cc1c2c(c(O)c3c(OC(=O)c4cccnc4)cccc13)C(=O)[C@]1(O)C(=O)C(C(N)=O)=C(O)[C@@H](N(C)C)[C@@H]1C2 [Inhibitor 8]
- Effect (E. coli DH5αZ1; combination with Tetracycline): Indifferent
- FICI (E. coli DH5αZ1; combination with Tetracycline): >1
- Effect (E. coli DH5αZ1; combination with Tigecycline): Indifferent
- FICI (E. coli DH5αZ1; combination with Tigecycline): >1
- Effect (P. aeruginosa PA 27853; [6]): Indifferent
- FICI (P. aeruginosa PA 27853; [7]): >1
- Effect (P. aeruginosa PA 27853; [8]): Indifferent
- FICI (P. aeruginosa PA 27853; [8]): >1
- Vmax of NADPH consumption (TetX7): 0.05 ± 0.02 min⁻¹
- Effect [1]: Synergetic
- FICI [1]: 0.265
- Effect (M. smegmatis mc^2155): Additive/Indifferent
- FICI (M. smegmatis mc^2155): 0.75–1
- Effect [2]: Synergetic
- FICI [2]: 0.375
- Effect (P. aeruginosa Pa-3; combination with Tetracycline): Indifferent
- Effect (P. aeruginosa Pa-3; combination with Tigecycline): Additive
- MIC of inhibitor combined with TC [3]: 4 µg/mL
- Effect (E. coli DH5αZ1+pZE24): Indifferent
- FICI (E. coli DH5αZ1+pZE24): 1

SMILES: CN(C)[C@@H]1C(O)=C(C(N)=O)C(=O)[C@@]2(O)C(O)=C3C(=O)c4c(O)cccc4[C@@](C)(O)[C@H]3C[C@@H]12 [TC, tetracycline]
- MIC of TC [4]: > 8 µg/mL

SMILES: Cc1c2c(c(O)c3c(O)cccc13)C(=O)[C@]1(O)C(=O)C(C(N)=O)=C(O)[C@@H](N(C)C)[C@@H]1C2 [aTC, anhydrotetracycline, reference compound]
- Effect (E. coli DH5αZ1; combination with Tetracycline): Indifferent
- FICI (E. coli DH5αZ1; combination with Tetracycline): >1
- Effect (E. coli DH5αZ1; combination with Tigecycline): Indifferent
- FICI (E. coli DH5αZ1; combination with Tigecycline): >1
- Effect (P. aeruginosa PA 27853; [6]): Additive
- Effect (P. aeruginosa PA 27853; [8]): Additive
- Effect (M. smegmatis mc^2155): Indifferent
- FICI (M. smegmatis mc^2155): 1
- Hemolysis (human red blood cells): No hemolysis
- Kapp of NADPH consumption (Tet50): 2.0 ± 0.3 µM
- Effect (P. aeruginosa Pa-3; combination with Tetracycline): Synergetic
- Effect (P. aeruginosa Pa-3; combination with Tigecycline): Synergetic

SMILES: CC(=O)Oc1ccc([N+](=O)[O-])cc1 [p-NO2-phenyl acetate]
- Stability toward hydrolysis in cell lysate [5]: time- and lysate-dependent increase in A405
